# Measured values: US7438926B2, “Methods for inhibiting decrease in transdermal drug flux by inhibition of pathway closure” (Alza Corporation, priority 2000, dated 2008)
# Like-named read-outs stand apart in the source and are kept apart here.
# Key:
# pathway closure [1] = assay: Inhibition of pathway closure by chemicals, methylene blue dye score after microprotrusion array pretreatment; assay type: in vivo, hairless guinea pigs; conditions: 24 h; for Effect on pathway closure (in words): methylene blue evaluation, Table II; for Score (methylene blue): scale 0 to 5, 0.5 or greater significant
# Procedure: Inhibition of pathway collapse by chemical agents was studied following pretreatment of the skin with a microprotrusion array and application of a formulation containing the agent for 24 h. Quantitation was performed by evaluation of dye impregnation of the pathways.
# Application of the microprotrusion array was performed with an impact applicator. […] Following application, the stretching tension was released. […] The guinea pig received a second system containing a different formulation on the opposite site. Twenty four hours after application, three systems from each group were removed and residual formulation washed from the skin. The skin was stained with a 1% methylene blue solution. Excess dye was thoroughly removed with 70% isopropyl alcohol pads and a picture of the site was taken. Pictures were scored on a 0 to 5 scale, 5 being the dye uptake obtained immediately following microprotrusion array application and 0 being the dye uptake obtained after 24 h contact with a control formulation. A score of 0.5 or greater was considered significant. Various osmotic agents, anticoagulants, antiinflammatory agents, gelling agents as well as gels of different pH and various additives were tested (Table II).
# pathway closure [2] = assay: Effect of pathway closure inhibitors on passive transdermal PPS flux (Example 3, 545 μm array); assay type: in vivo, hairless guinea pigs; conditions: for Effect on decrease in PPS flux between 1 and 24 h (in words): 3% citric acid trisodium salt or 50% 1,2,6-hexanetriol in PPS 0.1 mg/mL formulation; for Increase in total amount of PPS transported as compared to controls: 3% citric acid trisodium salt or 50% 1,2,6-hexanetriol
# Procedure: In this experiment, PPS was delivered by passive diffusion through pathways in the skin created by a microprotrusion array. The concentration of PPS was below the concentration required for inhibition of pathway collapse (see Table II). Therefore, at the concentration used in this experiment, PPS behaved like a drug lacking any activity on pathway closure.
# Microprotrusion array application was performed with an impact applicator. […] Following application, the stretching tension was released. […] Flux in the presence of 1,2,6-hexanetriol was decreased by less than 2 fold between 1 and 24 h. Total amount transported was increased about 4 and 7 folds in the presence of citric acid and 1,2,6-hexanetriol, respectively, as compared to controls as shown in FIG. 2.
# pathway closure [3] = conditions: PPS 0.16 mg/mL; 3% citric acid trisodium salt, 50% 1,2,6-hexanetriol or their mixture; 45 min vs 24 h
# Procedure: In all guinea pigs, the skin of one flank was manually stretched bilaterally at the time of the application of the system. Microprotrusion array application was performed with an impact applicator. […] Following application, the stretching tension was released. The adhesive ring was left adhered on the skin and the microprotrusion array was removed. […] Additional groups of HGPs were treated in the same way, except that the formulation contained 3% citric acid trisodium salt or 50% 1,2,6-hexanetriol. At 1 and 24 h after application, 3 systems from each group were removed and residual drug washed from the skin.
# (§1) Evaluation was performed at 45 min instead of 1 h. In addition, additional groups of animals received a formulation containing the mixture of 3% citric acid trisodium salt and 50% 1,2,6-hexanetriol.
# [4] = assay type: in vivo, hairless guinea pigs
# pathway closure [5] = conditions: guinea pig, not told
# Procedure: as §1
# An additional experiment was performed with PPS. Conditions were identical to that described in Example 4. Gluconic acid sodium salt, glucuronic acid sodium salt and glucose were evaluated at 0.6 M concentration with or without 3% citric acid.
# [6] = design: species or system hairless guinea pigs; conditions: guinea pig, in vivo
# Description: […]. […] […].
# [7] = design: species or system hairless guinea pigs; conditions: guinea pig, in vivo; remark: listed apart in the source
# Procedure: Additional experiments were performed with PPS in order to test alternative modes of delivery. […]. By comparison, with the same microprotrusion array and the same PPS concentration, total dose from a transdermal microprotrusion array with integrated drug reservoir and a pretreatment with a microprotrusion array and subsequent application of a drug reservoir was 2.2±0.2 mg and 1.4±0.2 mg, respectively. […]
# [8] = in vivo, po, cited from earlier work
# pathway closure [9] = assay: India ink staining of sites after microprotrusion array pretreatment; assay type: in vivo, hairless guinea pigs; conditions: sites exposed to the additive for 24 h
# [10] = assay type: in vivo, hairless guinea pigs; conditions: passive, array pretreatment (545 micrometer, 72/cm^2), PPS 0.05 mg/mL, DECAD 12 mg/mL, Inulin 2.5 mg/mL
# Description: Decrease in drug flux has been studied with three model drugs presenting different charge characteristics: pentosan polysulfate (PPS), a highly negatively charged compound, DECAD, a synthetic model decapeptide bearing two positive charges at pH 5.5, and inulin, a neutral polysaccharide.
# In this experiment, PPS, DECAD, and inulin were delivered by passive diffusion through pathways in the skin created by pretreatment with a microprotrusion array. Pretreatment involves placing a microprotrusion array onto the skin with sufficient force to create a plurality of microslits/microcuts through the stratum corneum of the skin. The microprotrusion array is then removed from the skin and then some form of agent delivery device or agent reservoir is placed over the pathways in order to effect agent delivery or sampling. Pretreatment was used instead of integrated system because pathway closure appears to occur more rapidly and more reproducibly following pretreatment than when the microprotrusions are left in the skin during drug delivery. The concentration of PPS was below the concentration required for anticoagulant effect. All drugs were dissolved in water and solutions were gelled with 2% hydroxyethylcellulose. […]. PPS and DECAD were radiolabeled with tritium. […] was radiolabeled with ^14C.
# Microprotrusion array application was performed with an impact applicator. […]. […]
compound,measurement,setting,value
"OCCCCC(O)CO (stereo not drawn) [1,2,6-Hexanetriol]",Effect on pathway closure (in words),pathway closure [1],most effective agents
same,Score (methylene blue),pathway closure [1]; additive concentration 11%,2.0 ± 0.3
same,Score (methylene blue),pathway closure [1]; additive concentration 23%,3.0 ± 0.5
same,Score (methylene blue),pathway closure [1]; additive concentration 50%,3.8 ± 0.2
same,Effect on decrease in PPS flux between 1 and 24 h (in words),pathway closure [2],inhibited this decrease in flux
same,Increase in total amount of PPS transported as compared to controls,pathway closure [2]; PPS 0.1 mg/mL,~7 folds
same,Decrease in PPS flux between 1 and 24 h in the presence of additive,"pathway closure [2]; PPS 0.1 mg/mL, formulation with 50% 1,2,6-hexanetriol",less than 2 fold
same,Effect on decrease in PPS flux at 24 hours (in words),pathway closure [3],inhibited significantly the decrease in flux
pentosan polysulfate [PPS],percentage excreted in urine following iv injection,"[4]; guinea pig, in vivo, iv",32%
same,Score (methylene blue),pathway closure [1]; additive concentration 0.01%,0 ± 0
same,Score (methylene blue),pathway closure [1]; additive concentration 5%,0.5 ± 0.0
same,Decrease in PPS flux between 1 hour and 24 hours,"pathway closure [2]; PPS 0.1 mg/mL, 2% HEC, no anti-healing agent",about 12 fold
same,Change of PPS flux between 1 hour and 24 hours (in words),pathway closure [5],flux decreased dramatically
same,intact fraction of dose excreted in urine,[6],more than 85%
same,total dose,[7],2.2 ± 0.2 mg
same,total dose delivered,[7],1.9 ± 0.1 mg
same,bioavailability,[8]; 300 mg,1-3%
same,fraction of dose absorbed found intact in urine,[8],less than 5%
O=C(O)CC(O)(CC(=O)O)C(=O)O [citric acid],Effect on pathway closure (in words),pathway closure [1],most effective agents in preventing pathway closure
same,Effect on decrease in PPS flux between 1 and 24 h (in words),pathway closure [2],inhibited this decrease in flux
same,Increase in total amount of PPS transported as compared to controls,pathway closure [2]; PPS 0.1 mg/mL,about 4 folds
same,Effect on decrease in PPS flux at 24 hours (in words),pathway closure [3],inhibited significantly the decrease in flux
same,Pathways open for larger sized compounds (India ink staining),pathway closure [9],pathways were open for larger sized compounds
OCC(O)CO [Glycerin],Score (methylene blue),pathway closure [1]; additive concentration 30%,2.7 ± 0.2
same,Score (methylene blue),pathway closure [1]; additive concentration 50%,3.0 ± 0.2
same,Score (methylene blue),pathway closure [1]; additive concentration 70%,2.7 ± 0.3
same,Pathways open for larger sized compounds (India ink staining),pathway closure [9],pathways were open for larger sized compounds
inulin,Drug Flux,[10]; 1 h,13.9 ± 1.6 μg/(cm^2h)
same,Drug Flux,[10]; 24 h,0.489 ± 0.123 μg/(cm^2h)
same,percentage excreted in urine following iv injection,"[4]; over two days following injection, previous studies",94%
